Target: Mu-type opioid receptor (Rattus norvegicus, UniProt P33535)
Experiment: Compound was tested for its ability to stimulate [35S]GTP-gamma-S, binding to membranes from C6 glioma cells stably expressing rat mu opioid receptor
Assay type: functional, cell membranes

Chain of Mu-type opioid receptor (P33535 whole entry): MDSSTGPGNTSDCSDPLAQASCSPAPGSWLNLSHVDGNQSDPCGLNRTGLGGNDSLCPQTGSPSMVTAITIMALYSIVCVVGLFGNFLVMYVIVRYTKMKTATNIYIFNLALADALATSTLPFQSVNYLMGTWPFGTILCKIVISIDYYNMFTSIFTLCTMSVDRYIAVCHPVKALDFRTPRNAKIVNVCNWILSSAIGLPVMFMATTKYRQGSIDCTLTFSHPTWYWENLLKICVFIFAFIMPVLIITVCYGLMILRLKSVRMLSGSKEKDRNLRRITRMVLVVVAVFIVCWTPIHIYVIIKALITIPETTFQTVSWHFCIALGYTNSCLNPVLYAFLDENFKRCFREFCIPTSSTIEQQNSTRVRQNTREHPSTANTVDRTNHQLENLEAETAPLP

Compound `CC1(C)SSC[C@@H](NC(=O)[C@@H](N)Cc2ccc(O)cc2)C(=O)N[C@@H](Cc2ccccc2)C(=O)N[C@@H]1C(N)=O` has an EC50 of 18.2 nM.

— ChEMBL document CHEMBL1130597, “Design of a high affinity peptidomimetic opioid agonist from peptide pharmacophore models” (Bioorg Med Chem Lett, 1998)
